Experimental data from the NIST ThermoML archive (doi:10.1021/acs.jced.5b00251).
± gives the expanded uncertainty stated by the source.

Test: refractive index (other wavelength) (dimensionless); xn = mol fraction of the nth substance listed
Settings: 101 kPa, Liquid, Standard Abbe refractometry

CC(C)Cc1ccccc1 [(2-methylpropyl)benzene] + c1ccc2c(c1)CCCC2
refractive index
Settings	x2 = 0.1014	x2 = 0.2024	x2 = 0.3032	x2 = 0.4036	x2 = 0.5038	x2 = 0.6036	x2 = 0.7032	x2 = 0.8024	x2 = 0.9014
293.15 K, Wavelength=436.1 nm	1.50977 ± 0.00078	1.51503 ± 0.0008	1.52078 ± 0.00076	1.52612 ± 0.0008	1.53208 ± 0.00078	1.53797 ± 0.00077	1.54392 ± 0.00078	1.55007 ± 0.00077	1.55611 ± 0.00078
293.15 K, Wavelength=513.9 nm	1.49809 ± 0.001	1.50316 ± 0.00091	1.5087 ± 0.0009	1.51409 ± 0.00089	1.51959 ± 0.00092	1.52525 ± 0.0009	1.53097 ± 0.00091	1.5369 ± 0.00091	1.54273 ± 0.001
293.15 K, Wavelength=589.3 nm	1.49141 ± 0.00079	1.49657 ± 0.00077	1.50199 ± 0.00078	1.50701 ± 0.00084	1.51266 ± 0.00079	1.51821 ± 0.00078	1.52382 ± 0.00078	1.52961 ± 0.00078	1.53531 ± 0.00082
293.15 K, Wavelength=633.2 nm	1.4889 ± 0.00076	1.49381 ± 0.00076	1.49922 ± 0.00077	1.50445 ± 0.00077	1.50978 ± 0.0008	1.51528 ± 0.00074	1.52085 ± 0.00077	1.5266 ± 0.00075	1.53226 ± 0.0008
293.15 K, Wavelength=657.2 nm	1.48749 ± 0.00074	1.49254 ± 0.00076	1.49852 ± 0.00074	1.50384 ± 0.00078	1.50967 ± 0.00071	1.51394 ± 0.00076	1.52005 ± 0.00069	1.52522 ± 0.00076	1.53141 ± 0.00069
298.15 K, Wavelength=436.1 nm	1.50717 ± 0.00078	1.51248 ± 0.00078	1.51824 ± 0.00078	1.52362 ± 0.00078	1.52954 ± 0.00079	1.53551 ± 0.00077	1.54144 ± 0.00078	1.54758 ± 0.00078	1.55354 ± 0.00078
298.15 K, Wavelength=513.9 nm	1.49546 ± 0.00076	1.50075 ± 0.00076	1.50623 ± 0.00076	1.51165 ± 0.00077	1.51711 ± 0.00077	1.52288 ± 0.00076	1.5286 ± 0.00076	1.53447 ± 0.00076	1.54022 ± 0.00076
298.15 K, Wavelength=589.3 nm	1.48927 ± 0.00074	1.49432 ± 0.00076	1.49956 ± 0.00075	1.50446 ± 0.00075	1.51023 ± 0.00075	1.51588 ± 0.00074	1.52148 ± 0.00075	1.52722 ± 0.00075	1.53287 ± 0.00075
298.15 K, Wavelength=633.2 nm	1.48633 ± 0.00075	1.49149 ± 0.00075	1.49681 ± 0.00075	1.50206 ± 0.00077	1.50737 ± 0.00075	1.51298 ± 0.00075	1.51853 ± 0.00075	1.52424 ± 0.00074	1.52981 ± 0.00074
298.15 K, Wavelength=657.2 nm	1.48512 ± 0.00074	1.49029 ± 0.00073	1.49594 ± 0.00077	1.50135 ± 0.00076	1.50706 ± 0.00076	1.51205 ± 0.0007	1.51776 ± 0.00074	1.52302 ± 0.00074	1.52941 ± 0.00074
303.15 K, Wavelength=436.1 nm	1.50468 ± 0.00078	1.50986 ± 0.00076	1.51569 ± 0.00079	1.52094 ± 0.00076	1.52674 ± 0.0008	1.53306 ± 0.00078	1.53885 ± 0.00078	1.54503 ± 0.00078	1.55109 ± 0.00079
303.15 K, Wavelength=513.9 nm	1.49315 ± 0.00076	1.49828 ± 0.00075	1.50376 ± 0.00078	1.50899 ± 0.00076	1.5146 ± 0.00076	1.52033 ± 0.00078	1.52606 ± 0.00076	1.532 ± 0.00076	1.53785 ± 0.00078
303.15 K, Wavelength=589.3 nm	1.48673 ± 0.00076	1.49163 ± 0.00075	1.49715 ± 0.00076	1.5021 ± 0.00075	1.50776 ± 0.00077	1.51352 ± 0.00075	1.51899 ± 0.00075	1.52478 ± 0.00075	1.53052 ± 0.00075
303.15 K, Wavelength=633.2 nm	1.48406 ± 0.00075	1.48893 ± 0.00075	1.49439 ± 0.00076	1.49932 ± 0.00076	1.50493 ± 0.00077	1.51036 ± 0.00075	1.51604 ± 0.00075	1.52181 ± 0.00075	1.52748 ± 0.00076
303.15 K, Wavelength=657.2 nm	1.48275 ± 0.00074	1.48792 ± 0.00075	1.49332 ± 0.00076	1.49885 ± 0.00073	1.50461 ± 0.00074	1.50983 ± 0.00073	1.51528 ± 0.00076	1.52043 ± 0.00074	1.52666 ± 0.00075
